Reference: the supplement of paper PMC10307832

Tests used:
Test in all cases: relative viability (nuclei count vs DMSO), 5 days (fraction); higher = more cells survive
[1] = compound: CCc1cnn2c(NCc3ccc[n+]([O-])c3)cc(N3CCCC[C@H]3CCO)nc12 [Dinaciclib] + CC(=O)Nc1cccc(-n2c(=O)n(C3CC3)c(=O)c3c(Nc4ccc(I)cc4F)n(C)c(=O)c(C)c32)c1 [Trametinib] (partner 0.02 µM)
Procedure, shortened: (§1)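 Each reported value is a median over duplicate plates. It expresses relative viability: treated-well nuclei count divided by vehicle-well nuclei count. Lung cancer cell lines in 1536-well plates were dosed by pin tool a day after seeding, alone with one drug or with a fixed anchor-drug dose plus five library-drug doses (not always all listed) in √10 steps, and nuclei were counted after 5 days.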

[2] = compound: CCc1cnn2c(NCc3ccc[n+]([O-])c3)cc(N3CCCC[C@H]3CCO)nc12 [Dinaciclib] + CC(=O)c1c(C)c2cnc(Nc3ccc(N4CCNCC4)cn3)nc2n(C2CCCC2)c1=O [Palbociclib] (partner 0.5 µM)
Procedure, shortened: as §1

[3] = compound: CCc1cnn2c(NCc3ccc[n+]([O-])c3)cc(N3CCCC[C@H]3CCO)nc12 [Dinaciclib] + Cc1cc(Nc2cc(N3CCN(C)CC3)nc(Sc3ccc(NC(=O)C4CC4)cc3)n2)n[nH]1 [Tozasertib] (partner 0.1 µM)
Procedure, shortened: as §1

[4] = compound: CCc1cnn2c(NCc3ccc[n+]([O-])c3)cc(N3CCCC[C@H]3CCO)nc12 [Dinaciclib] + Cc1nc(Nc2ncc(C(=O)Nc3c(C)cccc3Cl)s2)cc(N2CCN(CCO)CC2)n1 [Dasatinib] (partner 0.075 µM)
Procedure, shortened: as §1

[5] = compound: CCc1cnn2c(NCc3ccc[n+]([O-])c3)cc(N3CCCC[C@H]3CCO)nc12 [Dinaciclib] + NC(=O)Nc1cc(-c2cccc(F)c2)sc1C(=O)N[C@H]1CCCNC1 [AZD7762] (partner 0.2 µM)
Procedure, shortened: as §1

Cell Line | relative viability ([1]; first compound 0.009487 µM) | relative viability ([1]; first compound 0.03 µM) | relative viability ([1]; first compound 0.09487 µM) | relative viability ([1]; first compound 0.3 µM) | relative viability ([2]; first compound 0.009487 µM) | relative viability ([2]; first compound 0.03 µM) | relative viability ([2]; first compound 0.09487 µM) | relative viability ([2]; first compound 0.3 µM) | relative viability ([3]; first compound 0.009487 µM) | relative viability ([3]; first compound 0.03 µM) | relative viability ([3]; first compound 0.09487 µM) | relative viability ([3]; first compound 0.3 µM) | relative viability ([4]; first compound 0.009487 µM) | relative viability ([4]; first compound 0.03 µM) | relative viability ([4]; first compound 0.09487 µM) | relative viability ([4]; first compound 0.3 µM) | relative viability ([5]; first compound 0.009487 µM) | relative viability ([5]; first compound 0.03 µM) | relative viability ([5]; first compound 0.09487 µM) | relative viability ([5]; first compound 0.3 µM)
NCI-H1793 | 0.388 | 0.174 | 0.15 | 0.151 | 0.251 | 0.168 | 0.131 | 0.135 | 0.284 | 0.13 | 0.131 | 0.103 | 0.372 | 0.2 | 0.0986 | 0.13 | 0.83 | 0.144 | 0.156 | 0.121
NCI-H838 | 0.315 | 0.127 | 0.0741 | 0.0706 | 0.224 | 0.143 | 0.0896 | 0.0812 | 0.292 | 0.164 | 0.0965 | 0.0959 | 0.176 | 0.173 | 0.143 | 0.138 | 0.993 | 0.601 | 0.622 | 0.553
EMC-BAC-2 | 0.842 | 0.21 | 0.219 | 0.22 | 0.46 | 0.323 | 0.224 | 0.248 | 0.265 | 0.209 | 0.142 | 0.121 | 0.312 | 0.117 | 0.13 | 0.109 | 0.935 | 0.657 | 0.22 | 0.237
LU99A | 0.511 | 0.14 | 0.127 | 0.146 | 0.383 | 0.124 | 0.138 | 0.106 | 0.247 | 0.142 | 0.143 | 0.148 | 0.514 | 0.142 | 0.115 | 0.124 | 0.322 | 0.11 | 0.106 | 0.115
PC-3 [JPC-3] | 0.737 | 0.657 | 0.334 | 0.321 | 0.535 | 0.489 | 0.365 | 0.29 | 0.889 | 0.745 | 0.274 | 0.215 | 0.991 | 0.978 | 0.465 | 0.194 | 0.904 | 0.476 | 0.308 | 0.279
LCLC-97TM1 | 0.216 | 0.0795 | 0.0706 | 0.0687 | 0.18 | 0.0731 | 0.0753 | 0.0729 | 0.172 | 0.115 | 0.128 | 0.112 | 0.718 | 0.434 | 0.14 | 0.108 | 0.385 | 0.0625 | 0.0497 | 0.0774
NCI-H1993 | 0.632 | 0.419 | 0.511 | 0.479 | 0.602 | 0.36 | 0.506 | 0.433 | 0.505 | 0.623 | 0.595 | 0.565 | 0.637 | 0.509 | 0.481 | 0.576 | 0.668 | 0.364 | 0.385 | 0.396
HARA | 0.519 | 0.213 | 0.114 | 0.111 | 0.204 | 0.126 | 0.0948 | 0.0798 | 0.105 | 0.0553 | 0.0492 | 0.0424 | 0.254 | 0.22 | 0.0491 | 0.0506 | 0.349 | 0.116 | 0.127 | 0.123
NCI-H460 | 0.0986 | 0.0124 | 0.0166 | 0.0082 | 0.0704 | 0.0127 | 0.0174 | 0.0151 | 0.489 | 0.0458 | 0.015 | 0.0209 | 0.453 | 0.0263 | 0.0179 | 0.021 | 0.795 | 0.0353 | 0.0383 | 0.0328
EKVX | 0.333 | 0.219 | 0.11 | 0.108 | 0.323 | 0.234 | 0.114 | 0.113 | 0.398 | 0.253 | 0.074 | 0.0722 | 0.548 | 0.415 | 0.159 | 0.223 | 0.756 | 0.436 | 0.127 | 0.101
NCI-H1755 | 0.786 | 0.46 | 0.225 | 0.202 | 0.423 | 0.316 | 0.223 | 0.238 | 0.53 | 0.401 | 0.2 | 0.234 | 0.427 | 0.194 | 0.225 | 0.191 | 0.49 | 0.306 | 0.211 | 0.219
NCI-H1395 | 1.11 | 0.315 | 0.281 | 0.289 | 0.596 | 0.311 | 0.248 | 0.248 | 0.782 | 0.301 | 0.24 | 0.239 | 0.411 | 0.289 | 0.268 | 0.228 | 0.324 | 0.31 | 0.276 | 0.29
NCI-H2087 | 0.143 | 0.11 | 0.101 | 0.107 | 0.22 | 0.086 | 0.0942 | 0.0781 | 0.222 | 0.0979 | 0.0821 | 0.0868 | 0.808 | 0.0939 | 0.0743 | 0.0752 | 1.44 | 0.108 | 0.127 | 0.123
H3255 | 0.629 | 0.27 | 0.194 | 0.201 | 0.315 | 0.257 | 0.232 | 0.225 | 0.678 | 0.578 | 0.256 | 0.218 | 0.289 | 0.313 | 0.271 | 0.195 | 1.04 | 0.62 | 0.209 | 0.208
NCI-H23 | 0.305 | 0.164 | 0.13 | 0.122 | 0.304 | 0.167 | 0.0992 | 0.103 | 0.246 | 0.131 | 0.116 | 0.13 | 0.647 | 0.249 | 0.0991 | 0.114 | 0.246 | 0.125 | 0.107 | 0.0921
HCC-827 | 0.511 | 0.186 | 0.12 | 0.135 | 0.387 | 0.169 | 0.14 | 0.121 | 0.417 | 0.251 | 0.101 | 0.117 | 0.285 | 0.221 | 0.135 | 0.184 | 0.243 | 0.162 | 0.105 | 0.143
